Our source for the GI50 values is patent US20240132515A1, “TOXIN MOLECULE SUITABLE FOR ANTIBODY-DRUG CONJUGATE” (MINGHUI PHARMACEUTICAL (HANGZHOU) LIMITED, priority 2021, published 2024).

This assay relates to KPL-4 Cells. In words: Cell Proliferation Inhibition Test (CellTiter-Glo, 72 h). The format is cell-based. Conditions: KPL4, 72 h incubation, CellTiter-Glo luminescence. How it is done: Cell Proliferation Inhibition Test KPL-4 Cells in the logarithmic phase of growth were collected and re-suspended with fresh RPMI1640 complete cell culture medium, and adjusted to 2×10^4 cells/mL after cell counting. Cells were seeded into 96-well cell culture plates at 100 μL/well, and placed in a CO2 incubator (37° C., 5% CO2) overnight. In the next day, one of the cell culture plates were taken out, balanced to room temperature, and CellTiter-Glo reagent (Promega, USA), which was pre-balanced to room temperature and evenly mixed, was added into the plate at 100 μl. The plate was kept in dark for 30 min, and then luminescence value was read with a microplate reader (denoted as G0 value). The other cell culture plates were taken out and added with different concentrations of test compounds or DMSO (final concentration 0.5%) in corresponding wells. After incubated for 72 h in a CO2 incubator, the cell culture plates were balanced to room temperature and tested for cell viabilities using CellTiter-Glo reagent as described above (denoted as G3 value).
The cell proliferation rates were calculated using the following formula: Cell proliferation rate (%)=(mean of G3compound−mean of G0)/(mean of G3DMSO−mean of G0)×100.
(Cellular ATP, detected with luciferase, serves as a proxy for viable cell number.)
In the case of `CC[C@@]1(O)C(=O)OCc2c1cc1n(c2=O)Cc2c-1nc1cc(F)c(C)c3c1c2[C@@H](NC(=O)CO)CC3` [DXd, reference compound], halving of growth (GI50) required 72 nM.

Compound `CC[C@@]1(O)C(=O)OCc2c1cc1n(c2=S)Cc2c-1nc1cc(F)c(C)c3c1c2[C@@H](NC(C)=O)CC3` [Example 3] registered a GI50 of 2.59 nM.

As for `CC[C@@]1(O)C(=O)OCc2c1cc1n(c2=S)Cc2c-1nc1cc(F)c(C)c3c1c2[C@H](NC(C)=O)CC3` [Example 4], the GI50 turned out to be 1.55 nM.

Turning to `CC[C@@]1(O)C(=O)OCc2c1cc1n(c2=S)Cc2c-1nc1cc(F)c(C)c3c1c2[C@@H](NC(=O)C(O)c1ccccc1)CC3` (stereo partly shown) [Example 5], the GI50 was 1.79 nM. This GI50 and that of the compound before are within 1.5-fold of each other.

In the case of `CC[C@@]1(O)C(=O)OCc2c1cc1n(c2=S)Cc2c-1nc1cc(F)c(C)c3c1c2[C@H](NC(=O)C(O)c1ccccc1)CC3` (stereo partly shown) [Example 6], halving of growth (GI50) required 5.31 nM.

For the compound `CC[C@@]1(O)C(=O)OCc2c1cc1n(c2=S)Cc2c-1nc1cc(F)c(C)c3c1c2[C@@H](NC(=O)C(O)Cc1ccccc1)CC3` (stereo partly shown) [Example 7], the GI50 stood at 5.76 nM. This GI50 and that of the compound before are within 1.5-fold of each other.

`CC[C@@]1(O)C(=O)OCc2c1cc1n(c2=S)Cc2c-1nc1cc(F)c(C)c3c1c2[C@H](NC(=O)C(O)Cc1ccccc1)CC3` (stereo partly shown) [Example 8] registered a GI50 of 4.95 nM. The GI50 values of the last two compounds are within 1.5-fold of each other.

On to `CC[C@@]1(O)C(=O)OCc2c1cc1n(c2=S)Cc2c-1nc1cc(F)c(C)c3c1c2[C@@H](NC(=O)C(C)(C)O)CC3` [Example 9], for which it took 12.1 nM to inhibit growth by half (GI50).

`CC[C@@]1(O)C(=O)OCc2c1cc1n(c2=S)Cc2c-1nc1cc(F)c(C)c3c1c2[C@H](NC(=O)C(C)(C)O)CC3` [Example 10] displayed a GI50 of 3.54 nM. Against the preceding compound, the GI50 is about 3.4-fold lower.

`CC[C@@]1(O)C(=O)OCc2c1cc1n(c2=S)Cc2c-1nc1cc(F)c(C)c3c1c2[C@@H](NC(=O)CN)CC3` [Example 13] yielded a GI50 of 7.54 nM. Against the preceding compound, the GI50 is about 2.1-fold higher.

`CC[C@@]1(O)C(=O)OCc2c1cc1n(c2=S)Cc2c-1nc1cc(F)c(C)c3c1c2[C@H](NC(=O)CN)CC3` [Example 14] came in with a GI50 of 6.14 nM.

`CC[C@@]1(O)C(=O)OCc2c1cc1n(c2=S)Cc2c-1nc1cc(F)c(C)c3c1c2[C@@H](NC(=O)C1(O)CC1)CC3` [Example 17]: the GI50 worked out at 1.83 nM.

`CC[C@@]1(O)C(=O)OCc2c1cc1n(c2=S)Cc2c-1nc1cc(F)c(C)c3c1c2[C@H](NC(=O)C1(O)CC1)CC3` [Example 18] returned a GI50 of 3.89 nM.

In the case of `CC[C@@]1(O)C(=O)OCc2c1cc1n(c2=S)Cc2c-1nc1cc(F)c(C)c3c1c2[C@@H](NC(=O)C(O)CC1CC1)CC3` (stereo partly shown) [Example 19], it took 2.9 nM to inhibit growth by half (GI50).

In turn, `CC[C@@]1(O)C(=O)OCc2c1cc1n(c2=S)Cc2c-1nc1cc(F)c(C)c3c1c2[C@H](NC(=O)C(O)CC1CC1)CC3` (stereo partly shown) [Example 20] gave a GI50 of 4.79 nM. Compared with the last compound, the GI50 is about 1.7-fold higher.

With `CC[C@@]1(O)C(=O)OCc2c1cc1n(c2=S)Cc2c-1nc1cc(F)c(C)c3c1c2[C@H](NC(=O)C(O)C1CC1)CC3` (stereo partly shown) [Example 21], the GI50 worked out at 34.7 nM.

The GI50 is the concentration that inhibits growth by half. Higher therefore signals lower sensitivity of the cells.
